Results as given in ChEMBL document CHEMBL4052588, “Design of a Biased Potent Small Molecule Inhibitor of the Bromodomain and PHD Finger-Containing (BRPF) Proteins Suitable for Cellular and in Vivo Studies” (J Med Chem, 2017).

Legend:
Peregrin = biological target: T1, Peregrin (Homo sapiens, UniProt P55201); assay: Inhibition of human BRPF1 expressed in Escherichia coli BL21 after 1 hr by BROMOscan assay
T1 sequence (P55201 whole entry): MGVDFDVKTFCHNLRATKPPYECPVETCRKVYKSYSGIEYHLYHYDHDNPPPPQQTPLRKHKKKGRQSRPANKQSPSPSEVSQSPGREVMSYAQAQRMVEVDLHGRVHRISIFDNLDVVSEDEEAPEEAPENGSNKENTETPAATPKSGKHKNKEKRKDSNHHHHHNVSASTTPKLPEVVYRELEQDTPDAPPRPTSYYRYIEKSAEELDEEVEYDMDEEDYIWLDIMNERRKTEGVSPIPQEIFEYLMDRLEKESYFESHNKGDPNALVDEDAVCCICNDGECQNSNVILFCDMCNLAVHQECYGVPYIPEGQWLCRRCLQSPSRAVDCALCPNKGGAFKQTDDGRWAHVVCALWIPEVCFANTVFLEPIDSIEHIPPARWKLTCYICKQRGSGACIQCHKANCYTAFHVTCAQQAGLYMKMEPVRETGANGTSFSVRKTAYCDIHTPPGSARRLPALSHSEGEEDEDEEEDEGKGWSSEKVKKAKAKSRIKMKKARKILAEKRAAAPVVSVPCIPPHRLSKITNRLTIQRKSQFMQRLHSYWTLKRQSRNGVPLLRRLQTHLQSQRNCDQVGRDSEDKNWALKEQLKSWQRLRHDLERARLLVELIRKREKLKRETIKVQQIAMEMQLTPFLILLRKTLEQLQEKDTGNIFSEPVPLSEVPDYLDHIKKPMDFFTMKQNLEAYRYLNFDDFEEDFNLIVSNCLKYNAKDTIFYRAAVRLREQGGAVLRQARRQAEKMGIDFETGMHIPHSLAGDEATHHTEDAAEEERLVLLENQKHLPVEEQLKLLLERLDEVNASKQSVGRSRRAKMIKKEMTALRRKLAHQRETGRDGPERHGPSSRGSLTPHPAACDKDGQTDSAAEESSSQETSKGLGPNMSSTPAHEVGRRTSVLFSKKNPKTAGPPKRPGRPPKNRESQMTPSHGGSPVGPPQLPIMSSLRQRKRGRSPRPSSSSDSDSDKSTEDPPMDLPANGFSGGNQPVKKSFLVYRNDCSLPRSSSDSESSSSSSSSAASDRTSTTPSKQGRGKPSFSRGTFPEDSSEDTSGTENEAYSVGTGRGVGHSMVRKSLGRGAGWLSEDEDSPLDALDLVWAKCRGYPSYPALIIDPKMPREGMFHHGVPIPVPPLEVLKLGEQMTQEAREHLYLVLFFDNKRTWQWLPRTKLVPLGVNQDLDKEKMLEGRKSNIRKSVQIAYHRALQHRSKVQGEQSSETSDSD

[1] = biological target: T2, Bromodomain-containing protein 9 (Homo sapiens, UniProt Q9H8M2); assay: Inhibition of human His tagged BRD9 incubated for 30 mins followed by addition of biotinylated peptide and further incubation for 30 mins measured by AlphaScreen assay
T2 sequence (Q9H8M2 whole entry): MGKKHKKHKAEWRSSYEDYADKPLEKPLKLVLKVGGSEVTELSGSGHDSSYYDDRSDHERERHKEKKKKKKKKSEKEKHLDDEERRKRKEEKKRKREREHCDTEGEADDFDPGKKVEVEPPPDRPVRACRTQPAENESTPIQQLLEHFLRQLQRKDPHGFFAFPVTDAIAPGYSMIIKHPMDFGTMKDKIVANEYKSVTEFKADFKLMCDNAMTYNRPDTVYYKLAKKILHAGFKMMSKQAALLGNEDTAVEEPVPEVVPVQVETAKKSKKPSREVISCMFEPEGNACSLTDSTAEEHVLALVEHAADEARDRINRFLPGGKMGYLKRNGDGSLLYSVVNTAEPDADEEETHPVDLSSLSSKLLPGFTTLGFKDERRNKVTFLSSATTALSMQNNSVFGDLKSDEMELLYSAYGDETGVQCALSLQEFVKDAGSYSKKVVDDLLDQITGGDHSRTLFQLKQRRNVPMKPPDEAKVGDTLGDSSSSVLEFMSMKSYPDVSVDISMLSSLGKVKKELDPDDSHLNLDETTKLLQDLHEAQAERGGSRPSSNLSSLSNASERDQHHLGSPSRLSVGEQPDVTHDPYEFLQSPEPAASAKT

[2] = biological target: Bromodomain-containing protein 4 (Homo sapiens, UniProt O60885)

SMILES | IC50 (Peregrin) | IC50 [1] | ΔTm [2]
Cn1c(=O)ccc2cc(NS(=O)(=O)c3ccc(C#N)c(Cl)c3)ccc21 | 62 nM | – | –
COc1ccccc1C(=O)Nc1cc2cc(C)c(=O)n(C)c2cc1N1CCCC1 | 220 nM | – | –
COc1cc2c(cc1NS(=O)(=O)c1ccc(C#N)cc1)c(C)cc(=O)n2C | 60 nM | – | –
CCc1cc2cc(NS(=O)(=O)c3ccc(C#N)cc3)ccc2n(CC)c1=O | > 100000 nM | > 20000 nM | –
Cc1cc2cc(NS(=O)(=O)c3ccc(C#N)cc3)ccc2n(C)c1=O | 7.9 nM | 1100 nM | 0.95 °C
Cc1cc(C#N)ccc1S(=O)(=O)Nc1ccc2c(ccc(=O)n2C)c1 | – | – | 0.4 °C
